Data from patent publication US11504425B2, “Amphiphilic oligodeoxynucleotide conjugates as adjuvant enhancers” (WAYNE STATE UNIVERSITY, priority 2019, dated 2022).

Molecular target: T1, mouse TLR8 (mTLR8) (Mus musculus, UniProt P58682)
T1 construct: host or cells: HEK-Blue-mTLR8 (HEK293)
T1 sequence (P58682 24-1032): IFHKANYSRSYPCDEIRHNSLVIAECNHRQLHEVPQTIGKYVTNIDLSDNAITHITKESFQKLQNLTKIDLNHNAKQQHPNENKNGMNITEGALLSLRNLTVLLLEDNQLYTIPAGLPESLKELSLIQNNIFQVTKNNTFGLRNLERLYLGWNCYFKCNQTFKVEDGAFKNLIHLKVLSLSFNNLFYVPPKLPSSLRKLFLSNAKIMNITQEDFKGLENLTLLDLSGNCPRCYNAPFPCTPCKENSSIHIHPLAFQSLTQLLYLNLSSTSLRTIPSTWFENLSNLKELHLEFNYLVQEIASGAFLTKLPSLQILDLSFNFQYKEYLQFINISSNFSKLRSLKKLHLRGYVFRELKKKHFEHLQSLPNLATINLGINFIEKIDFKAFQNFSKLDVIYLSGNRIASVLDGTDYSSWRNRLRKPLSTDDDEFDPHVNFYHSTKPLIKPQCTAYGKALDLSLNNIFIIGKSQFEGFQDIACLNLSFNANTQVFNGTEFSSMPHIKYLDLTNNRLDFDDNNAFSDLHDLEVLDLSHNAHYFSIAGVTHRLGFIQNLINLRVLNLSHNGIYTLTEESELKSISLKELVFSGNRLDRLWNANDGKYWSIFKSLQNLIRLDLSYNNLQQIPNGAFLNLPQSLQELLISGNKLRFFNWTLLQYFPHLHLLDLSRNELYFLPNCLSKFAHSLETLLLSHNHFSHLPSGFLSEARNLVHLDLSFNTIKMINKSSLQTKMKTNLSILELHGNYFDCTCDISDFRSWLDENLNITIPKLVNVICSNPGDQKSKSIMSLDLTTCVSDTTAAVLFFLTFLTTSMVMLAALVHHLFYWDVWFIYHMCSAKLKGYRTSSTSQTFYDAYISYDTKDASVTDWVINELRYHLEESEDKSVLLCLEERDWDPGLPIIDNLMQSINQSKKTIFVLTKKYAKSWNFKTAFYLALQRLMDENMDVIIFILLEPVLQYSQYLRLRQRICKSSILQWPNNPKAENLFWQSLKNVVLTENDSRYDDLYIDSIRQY
Test: HEK mTLR8 reporter cells NF-κB/SEAP
Assay type: cell-based
Settings: ligands at indicated concentrations + 1 μM ODN, 24 h
Method: HEK-Blue™-mTLR7, mTLR8, hTLR7, hTLR8, and RAW-Blue™ cells were purchased from InvivoGen and were used to evaluate bioactivities of lipo ODNs and TLR 7/8 ligands in vitro. All these cell lines were cultured with DMEM supplemented with 10% FBS, 1% P/S and 100 μg/mL Normocin at 37° C. with 5% CO2. […] After incubating for 24 h, SEAP levels were quantified by developing supernatants with QuantiBlue™ substrate for 1 h and reading absorption at 620 nm, following manufacturer's instructions.
Raw Blue cells which respond to both murine TLR-7 and TLR-8 are also included to assess the overall modulatory effect. half-maximal effective concentration (EC50) and potency of several classic TLR7/8 ligands were evaluated in murine TLR7 and TLR8 reporter cells.

Substance: 5′-TTTTTTTTTTTTTTTTTTTT-3′ [T20]
- mTLR8 stimulation by IMQ, CL075, R848 in the presence of the ODN: increased the potency of TLR-8 stimulation
